The values below come from PubChem BioAssay (NCI).

The structures appear in SMILES notation. Values joined by “and” are separate entries in the source; they are usually repeats but may differ in a detail not shown here. Identical values can stand only once.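 Results reflect a 48-hour exposure of cells in 96-well plates to compound at five concentrations. GI50 = concentration required for 50% inhibition of growth. TGI denotes the concentration required for complete inhibition of growth.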

Among the test systems are A549 NSCLC; U251 CNS; COLO 205 colon; MDA-MB-231 breast; HOP-92 NSCLC; SN12C renal; T-47D breast; K-562 leukemia; NCI/ADR-RES ovarian; HCC-2998 colon.
What all share (experiment): growth of human tumour cells (NCI), 48 h

`Cc1ccc2c(c1)CN(C(=O)CCC(=O)OCc1ccccc1)c1ccc(C)cc1CN2C(=O)CCC(=O)OCc1ccccc1`: the TGI with A549 NSCLC, with U251 CNS, with COLO 205 colon, with MDA-MB-231 breast, with HOP-92 NSCLC and in the experiment with SN12C renal was > 100 µM throughout. In addition, the TGI in the experiment on T-47D breast, in the experiment with K-562 leukemia, in the experiment with NCI/ADR-RES ovarian and with HCC-2998 colon was > 100 µM each time.
As for `COc1ccc(C2SCC(=O)N2NC(=O)Nc2c(C)nc3ccccn23)cc1` (stereo not drawn), the GI50 in the experiment on A549 NSCLC was > 100 µM; in the experiment with U251 CNS, 13.8 µM; with COLO 205 colon, > 100 µM; in the experiment with MDA-MB-231 breast it was 15.8 µM; in the experiment with HOP-92 NSCLC, 16.6 µM; in the experiment with SN12C renal, 54.4 µM. Also, the GI50 in the experiment with T-47D breast is 26.4 µM; in the experiment on K-562 leukemia, > 100 µM; in the experiment with NCI/ADR-RES ovarian, 40.2 µM; with HCC-2998 colon, > 100 µM. Besides, the TGI in the experiment on A549 NSCLC was > 100 µM; with U251 CNS, 27.9 µM; in the experiment with COLO 205 colon, > 100 µM; in the experiment with MDA-MB-231 breast, 34.7 µM; in the experiment on HOP-92 NSCLC, 37.5 µM; in the experiment with SN12C renal, > 100 µM. Moreover, the TGI is 74.9 µM in the experiment on T-47D breast, > 100 µM in the experiment on K-562 leukemia, > 100 µM in the experiment with NCI/ADR-RES ovarian and > 100 µM in the experiment with HCC-2998 colon.
Consider `CON(C)C(=O)N1N=C(c2cc(F)ccc2F)SC1(CCCN)c1ccccc1` (stereo not drawn), for which the GI50 with A549 NSCLC is 0.024 µM and < 0.01 µM; in the experiment on U251 CNS, < 0.01 µM; in the experiment with COLO 205 colon, < 0.01 µM; in the experiment with MDA-MB-231 breast it was < 0.01 µM; with SN12C renal it was < 0.01 µM; in the experiment on T-47D breast, 0.0279 µM and < 0.01 µM. Also, the GI50 is < 0.01 µM in the experiment with K-562 leukemia; 0.544 µM and 0.122 µM with NCI/ADR-RES ovarian; < 0.01 µM with HCC-2998 colon. Moreover, the TGI was 17.1 µM and 18.2 µM in the experiment with A549 NSCLC; 13.4 µM and 13.7 µM with U251 CNS; 0.039 µM in the experiment with MDA-MB-231 breast; 10.2 µM and 15 µM with HOP-92 NSCLC; 16 µM and 16.1 µM in the experiment on SN12C renal; 18.7 µM and 18.2 µM in the experiment with T-47D breast. Besides, the TGI was 15.1 µM and 14.3 µM with K-562 leukemia; 5.34 µM and 2.87 µM in the experiment with NCI/ADR-RES ovarian; 4.34 µM and 4.41 µM in the experiment on HCC-2998 colon.
Take `O=C(/C(=C/c1cccc([N+](=O)[O-])c1)c1ccccc1)c1ccccc1`: the GI50 in the experiment on A549 NSCLC is 4.31 µM; with U251 CNS, 2.72 µM; in the experiment with COLO 205 colon, 3.82 µM; in the experiment with MDA-MB-231 breast it was 4.01 µM; in the experiment on HOP-92 NSCLC, 1.97 µM; in the experiment with SN12C renal, 3.54 µM. Besides, the GI50 with T-47D breast is 3.42 µM; in the experiment on K-562 leukemia it was 3.27 µM; in the experiment on NCI/ADR-RES ovarian it was 2.98 µM; with HCC-2998 colon, 2.54 µM. In addition, the TGI in the experiment on A549 NSCLC was 30.1 µM; in the experiment with U251 CNS, 8.16 µM; in the experiment with COLO 205 colon it was 13.3 µM; in the experiment on MDA-MB-231 breast it was > 100 µM; in the experiment with HOP-92 NSCLC, 6.95 µM; in the experiment on SN12C renal it was 79.8 µM. The TGI with T-47D breast was 15.5 µM; with K-562 leukemia, 15.7 µM; in the experiment on NCI/ADR-RES ovarian it was > 100 µM; with HCC-2998 colon, 6.27 µM.
For the compound `CO[C@H]1C=C[C@@]23c4cc5c(cc4CO[C@]2(O)CN(C)[C@H]3C1)OCO5`, the TGI in the experiment with A549 NSCLC, with U251 CNS, with COLO 205 colon, with MDA-MB-231 breast, with HOP-92 NSCLC and in the experiment with SN12C renal was > 100 µM each time. Besides, the TGI in the experiment with T-47D breast, in the experiment on K-562 leukemia, in the experiment on NCI/ADR-RES ovarian and in the experiment on HCC-2998 colon was > 100 µM each time.
Consider `Cc1ccc(NC(=O)c2sc3nc(C)c(C(O)c4ccccc4)cc3c2N)cc1` (stereo not drawn), for which the GI50 in the experiment with A549 NSCLC is 0.64 µM; in the experiment with U251 CNS, 0.384 µM; in the experiment on COLO 205 colon, 0.573 µM; with MDA-MB-231 breast, 0.777 µM; in the experiment on HOP-92 NSCLC, 0.857 µM; in the experiment with SN12C renal, 0.664 µM. Also, the GI50 in the experiment with T-47D breast was 0.471 µM; in the experiment on K-562 leukemia, 0.333 µM; with NCI/ADR-RES ovarian it was 0.39 µM; in the experiment with HCC-2998 colon it was 0.818 µM. Also, the TGI in the experiment on A549 NSCLC is 32.7 µM; with U251 CNS, 22.4 µM; in the experiment with COLO 205 colon, > 21.8 µM; in the experiment with MDA-MB-231 breast it was 21.8 µM; in the experiment with HOP-92 NSCLC, 20.4 µM; in the experiment with SN12C renal it was 25.9 µM. The TGI with T-47D breast is > 58.3 µM; in the experiment with K-562 leukemia, > 100 µM; in the experiment with NCI/ADR-RES ovarian, 18.9 µM; with HCC-2998 colon it was 5.73 µM.
Turning to `CC[C@H](C)[C@H]1O[C@]2(C=C[C@@H]1C)C[C@@H]1C[C@@H](C/C=C(\C)[C@@H](O[C@H]3C[C@H](OC)[C@@H](O[C@H]4C[C@H](OC)[C@@H](NC)[C@H](C)O4)[C@H](C)O3)[C@@H](C)/C=C/C=C3\CO[C@@H]4[C@H](O)C(C)=C[C@@H](C(=O)O1)[C@]34O)O2`, the GI50 is 2.01 µM with A549 NSCLC; 1.91 µM in the experiment on U251 CNS; 1.77 µM in the experiment on COLO 205 colon; 2 µM in the experiment with MDA-MB-231 breast; 2.12 µM in the experiment on HOP-92 NSCLC; 3.04 µM in the experiment on SN12C renal. Besides, the GI50 with T-47D breast is 4.4 µM; in the experiment with K-562 leukemia it was 1.97 µM; with NCI/ADR-RES ovarian, 3.05 µM; in the experiment on HCC-2998 colon, 1.89 µM. Further, the TGI turned out to be 6.38 µM in the experiment with A549 NSCLC; 4.07 µM in the experiment on U251 CNS; 3.39 µM in the experiment on COLO 205 colon; 4.4 µM in the experiment on MDA-MB-231 breast; 9.67 µM with HOP-92 NSCLC; 11.3 µM in the experiment with SN12C renal. In addition, the TGI worked out at 16.8 µM in the experiment with T-47D breast, 4.22 µM in the experiment with K-562 leukemia, 11.3 µM with NCI/ADR-RES ovarian and 3.36 µM in the experiment on HCC-2998 colon.
As for `CCCCCN(CCCCC)CC(O)c1ccc(Cl)c2ccccc12` (stereo not drawn), the GI50 in the experiment on A549 NSCLC was 14.2 µM; in the experiment on U251 CNS, 12.3 µM; in the experiment with COLO 205 colon it was 3.6 µM; in the experiment with MDA-MB-231 breast, 10.8 µM; in the experiment on HOP-92 NSCLC, 0.974 µM; with SN12C renal it was 10.6 µM. Further, the GI50 is 4.93 µM in the experiment with T-47D breast, 4.23 µM in the experiment on K-562 leukemia, 11.1 µM in the experiment with NCI/ADR-RES ovarian and 3.34 µM with HCC-2998 colon. The TGI in the experiment with A549 NSCLC is 34 µM; with U251 CNS, 28.6 µM; in the experiment on COLO 205 colon, 16.5 µM; in the experiment with MDA-MB-231 breast it was 26.4 µM; in the experiment on HOP-92 NSCLC, 14 µM; in the experiment with SN12C renal it was 24.6 µM. For the same compound, the TGI is 19.4 µM with T-47D breast, 20.8 µM in the experiment with K-562 leukemia, 24.8 µM in the experiment on NCI/ADR-RES ovarian and 9.72 µM in the experiment on HCC-2998 colon.
